≈ marks a conversion by molar mass, not a printed value.
System: human rhinovirus (HRV) serotypes HRV-2, -1A, 1B, -6, -14, -21, -22, -15, -25, -30, -50, -67, -89, -86 and -41
Assay: standard plaque reduction assay, panel of human rhinovirus serotypes in HeLa (Ohio) cells
Assay type: cell-based
Details: MIC = 50% plaque reduction, N serotypes: 15 (Ex. 1, 2, 4, 7, 8), 13 (Ex. 3), 2 (Ex. 5, 6); for MIC50 (Rhinovirus): concentration required to inhibit 50% of the tested serotypes; for MIC80 (Rhinovirus): concentration required to inhibit 80% of the tested serotypes
Protocol: The MIC values were determined by a standard plaque reduction assay as follows: HeLa (Ohio) cells in monolayers were infected at a concentration of virus to give approximately 80 plaques per monolayer in the virus control (no drug present). The compound to be tested was serially diluted and included in the agar-medium overlay and in some cases, during the adsorption period as well. The MIC was determined to be that concentration of compound which reduced the number of plaques by 50% with respect to the untreated virus control.
In the standard test procedure, the compounds were tested against a panel of fifteen human rhinovirus (HRV) serotypes, namely HRV-2, -1A, 1B, -6, -14, -21, -22, -15, -25, -30, -50, -67, -89, -86 and -41. The MIC value for each rhinovirus serotype was determined, and the efficacy of each compound was determined in terms of MIC50 and MIC80 values, which is the concentration of the compound required to inhibit 50% and 80%, respectively, of the tested serotypes.
The following Table gives the testing results with the compounds of the invention. The number of serotypes (N) is indicated after the MIC80 figure.

SMILES	MIC50 (Rhinovirus) [µg/mL]	MIC80 (Rhinovirus) [µg/mL]
CCc1ccc(N2CCC(COc3ccc(-c4nnn(C)n4)cc3)CC2)nn1 [Ex. 1]	13.2 (≈ 34.7 µM)	0.281 (≈ 0.742 µM)
Cc1ccc(N2CCC(COc3ccc(-c4nnn(C)n4)cc3)CC2)nn1 [Ex. 2]	13.3 (≈ 36.5 µM)	0.141 (≈ 0.386 µM)
CCCc1ccc(N2CCC(Oc3ccc(-c4nnn(C)n4)cc3)CC2)nn1 [Ex. 3]	15.7 (≈ 41.4 µM)	1.82 (≈ 4.8 µM)
Cc1ccc(N2CCC(COc3c(C)cc(-c4nnn(C)n4)cc3C)CC2)nn1 [Ex. 4]	20.1 (≈ 51.2 µM)	1.48 (≈ 3.77 µM)
Cc1ccc(N2CCC(Oc3c(C)cc(-c4nnn(C)n4)cc3C)CC2)nn1 [Ex. 5]	0.92 (≈ 2.42 µM)	1.8 (≈ 4.74 µM)
Cc1ccc(N2CCC(Oc3ccc(-c4nnn(C)n4)cc3)CC2)nn1 [Ex. 6]	0.27 (≈ 0.768 µM)	0.52 (≈ 1.48 µM)
Cc1ccc(N2CCC(CCOc3ccc(-c4nnn(C)n4)cc3)CC2)nn1 [Ex. 7]	6.64 (≈ 17.5 µM)	0.04 (≈ 0.105 µM)
Cc1ccc(N2CCC(CCOc3c(C)cc(-c4nnn(C)n4)cc3C)CC2)nn1 [Ex. 8]	16.8 (≈ 41.3 µM)	0.66 (≈ 1.62 µM)

— patent publication US5242924A, “Tetrazolyl-(phenoxy and phenoxyalkyl)-piperidinylpyridazines as antiviral agents” (Sterling Winthrop Inc., priority 1992, dated 1993)
